According to publication PMC8725537, “Assessment of NSAIDs as potential inhibitors of the fatty acid amide hydrolase I (FAAH-1) using three different primary fatty acid amide substrates in vitro” (BMC Pharmacology & Toxicology, 2022):
Where two headings read alike, the source gives them in different places. Values belong to the molecule of their own block, whether it stands above or below them.

Columns and labels:
FAAH-1 [1] = target: T1, FAAH-1 (Rattus norvegicus, UniProt P97612); experiment: Inhibition of rat liver FAAH-1 oleamide hydrolase activity by NSAIDs (500 μM screen and concentration-inhibition curves); format: biochemical; details: for FAAH-1 oleamide hydrolase activity, % of control: 500 μM NSAID, oleamide substrate, rat liver
T1 construct: Liver obtained from male Wister rats; from tissue; host or cells: rat liver homogenate, 20,000 g membrane pellet (male Wistar rats, Charles River Laboratories)
T1 sequence (P97612 1-579): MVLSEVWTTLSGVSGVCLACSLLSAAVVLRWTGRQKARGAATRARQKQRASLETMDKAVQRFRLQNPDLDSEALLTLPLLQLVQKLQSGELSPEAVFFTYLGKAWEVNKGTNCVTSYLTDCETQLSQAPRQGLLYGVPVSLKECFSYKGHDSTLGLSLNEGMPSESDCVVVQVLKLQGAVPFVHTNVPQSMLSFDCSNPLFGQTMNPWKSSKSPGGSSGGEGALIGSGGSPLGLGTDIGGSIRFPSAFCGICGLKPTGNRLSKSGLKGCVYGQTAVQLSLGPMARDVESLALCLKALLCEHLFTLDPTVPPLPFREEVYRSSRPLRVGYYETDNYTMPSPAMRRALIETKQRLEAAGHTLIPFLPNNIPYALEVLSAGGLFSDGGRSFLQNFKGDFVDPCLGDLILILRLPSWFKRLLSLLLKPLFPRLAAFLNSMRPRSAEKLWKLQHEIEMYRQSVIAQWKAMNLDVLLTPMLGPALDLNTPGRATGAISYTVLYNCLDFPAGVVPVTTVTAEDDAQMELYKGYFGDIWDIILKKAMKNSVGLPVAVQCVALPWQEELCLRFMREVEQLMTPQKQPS
Procedure: (§1) FAAH-1 activity was studied in rat liver homogenate.
(§2) Liver obtained from male Wister rats (150–250 g, Charles River Laboratories, Wilmington, USA) which had been stored at − 40 °C was thawed. A volume of 6 ml/g wet weight of rat liver was homogenized in 0.2 M potassium phosphate buffer, pH 7.4 using a hand held homogenizer (Ultra-turrax) (Merck KGaA, Darmstadt, Germany). The resulting mixture was centrifuged at 250 g for 10 min after which the pellet obtained was re-homogenised and centrifuged as aforementioned. The supernatants were combined and centrifuged at 20,000 g for 30 min, after which the membrane containing pellet was re-suspended in 1:1^w/v 0.2 M potassium phosphate buffer, pH 7.4, and stored in 1 ml aliquots at − 40 °C.
FAAH-1 activity was assayed essentially as described previously. Briefly, rat liver homogenate was pre-incubated at 37 °C with shaking (50 × 10 rpm) for 10 min in 0.2 M phosphate buffer, pH 7.4 in 96-well microtitre plates (Thermo Scientific Inc., Waltham, USA) prior to substrate addition and incubation at 37 °C for 30 min. […] Substrate blank and a control containing 0.2 M phosphate buffer, pH 7.4, were incorporated into the experiments.
(§3) Effect of 500 μM concentration of NSAIDs (SIGMA-ALDRICH, Poole, UK) on each enzyme activity was analysed by removing the baseline line. Each specific activity was then plotted as percentage of control. Specific activity obtained at each inhibitor concentration for the concentration-inhibition curves were normalized and analysed using the inbuilt log (inhibitor) versus response variable slope (robust fit) and were constrained at the bottom (= 0.0%). Each specific activity was then plotted as percentage of the control. To determine the mode of inhibition, Vmax values were initially extrapolated from the (NH4)2SO4 standard curve plotted using the inbuilt second order polynomial (quadratic) Michaelis-Menten enzyme kinetics. These values were then adjusted using the protein concentrations of the preparations obtained from the Lowry protocol (Fig. SS1 and SS2).

FAAH-1 [2] = target: T1, FAAH-1; experiment: Rat liver FAAH-1 hydrolysis of primary fatty acid amide substrates (Michaelis-Menten, OPA fluorescence ammonia assay); format: biochemical; details: for Km / Vmax: rat liver FAAH-1, compound as substrate, pH 7.4, mean ± SEM n = 4
Procedure: as §1, §2
(§4) FAAH-1 activity was assayed essentially as described previously. Briefly, rat liver homogenate was pre-incubated at 37 °C with shaking (50 × 10 rpm) for 10 min in 0.2 M phosphate buffer, pH 7.4 in 96-well microtitre plates (Thermo Scientific Inc., Waltham, USA) prior to substrate addition and incubation at 37 °C for 30 min. The 100 μl total assay reaction mixtures were halted with an equivalent volume of o-phthaldehyde (OPA) developing solution (0.4 M potassium phosphate buffer, pH 11.5) and incubated further at 37 °C for 15 min before assessing fluorescence using a FLUOstar Galaxy (Excitation 390 nm, Emission 450–10 nm) (BMG LABTECH GmbH, Ortenberg, Germany). Substrate blank and a control containing 0.2 M phosphate buffer, pH 7.4, were incorporated into the experiments.
as §3, with “Data obtained were entered into a Microsoft Excel 2010 spread sheet and analysed with GraphPad Prism computer software programme (GraphPad Software Inc., San Diego, CA USA). Effect” for “Effect”
Fig. 1 Hydrolysis of oleamide (a), arachidonamide (b) and stearoylamide (c) by rat liver FAAH-1 activity. Rat liver FAAH-hydrolytic activity of each primary amide substrate in vitro, was assayed by quantification of ammonia released after hydrolysis. Ammonia generated in the presence of sulphite ions is reacted with alkaline o-phthaldehyde (OPA) to generate the stable fluorescent isoindole derivative (1-sulphonatoisoindole) which is quantified by fluorescent spectroscopy. Four separate experiments with three replicates on the same microtiter plate were conducted for each substrate using different rat liver preparations. Data are mean ± SEM (Standard Error of the Mean) of four separate preparations (n = 4) conducted in triplicate

FAAH-1 [3] = target: T1, FAAH-1; experiment: Mode of inhibition of rat liver FAAH-1 hydrolysis of oleamide and arachidonamide (Michaelis-Menten with inhibitor); format: biochemical; details: for Vmax (nmol/min/mg protein): Control (no inhibitor), compound as substrate; for Mode of inhibition of FAAH activity: Michaelis-Menten analysis, oleamide and arachidonamide substrates
Procedure: as §4
as §3, with “Data obtained were entered into a Microsoft Excel 2010 spread sheet and analysed with GraphPad Prism computer software programme (GraphPad Software Inc., San Diego, CA USA). Effect” for “Effect”
Unlike aspirin which is an irreversible inhibitor of COX enzymes, most other NSAIDs are reversible competitive inhibitors of the COX enzymes.
Data are mean ± SEM (Standard Error of the Mean) of four separate preparations (n = 4) conducted in triplicate

rat brain FAAH-1 = test system: rat brain FAAH-1; parameters: method as in PMID 23240907; details: rat brain FAAH-1, pH 7.4 ref 52; cited from earlier work
[4] = test system: FAAH-1 in rat liver preparations; details: cited from earlier work
FAAH-1 in rat brain = test system: FAAH-1 in rat brain; parameters: method as in ref 41 = [41]; 41. Garle MJ, Clark JS and Alexander SPH. A fluorescence-derivatisation assay for fatty acid amide hydrolase activity. 2005; pA2 Online. E-journal of the British Pharmacological Society.; details: oleamide hydrolysis, rat brain ref 41; cited from earlier work
rat recombinant FAAH = test system: rat recombinant FAAH; parameters: method as in PMID 10571985; details: pH 9, oleamide hydrolysis ref 45; read-out: affinity (Km); cited from earlier work
FAAH = test system: FAAH; parameters: method as in ref 68 = [68]; 68. Dongdem JT Dawson SP Alexander SPH Characterization of [3-(3-carbamoylphenyl) phenyl] N-cyclohexyl carbamate, an inhibitor of FAAH: effect on rat liver FAAH and HEK293T-FAAH-2 deamination of oleam; details: cited from earlier work
[5] = rat liver oleamide hydrolase activity, NSAID 4.0 × 10^-6 to 1.024 × 10^-3 M in absolute ethanol, n = 4

Structure (SMILES): CCCCC/C=C\C/C=C\C/C=C\C/C=C\CCCC(N)=O [Arachidonamide]
FAAH-1 capacity (Vmax) higher compared with oleamide (FAAH-1 [2]; rat liver FAAH-1): 12% | FAAH-1 capacity (Vmax) higher than that for stearoylamide (FAAH-1 [2]; rat liver FAAH-1): 75% | Km (FAAH-1 [2]): 44.9 ± 7 µM | Vmax (FAAH-1 [2]): 10.1 ± 3.0 nmol/min/mg protein | Vmax (nmol/min/mg protein) (FAAH-1 [3]): 8.4 ± 1.2 nmol/min/mg protein

Structure (SMILES): O=C(O)c1cc(-c2ccc(F)cc2F)ccc1O [Diflunisal]
FAAH-1 oleamide hydrolase activity, % of control (FAAH-1 [1]): below 50 % of control | IC50 (FAAH-1 [1]; [5]): 708 µM

Structure (SMILES): Cc1c(N(C)CS(=O)(=O)[O-])c(=O)n(-c2ccccc2)n1C.[Na+] [Dipyrone]
pIC50 (M) (FAAH-1 [1]; [5]): 2.77 ± 0.07 M

Structure (SMILES): CC(C)Cc1ccc(C(C)C(=O)O)cc1 (stereo not drawn) [Ibuprofen]
pIC50 (rat brain FAAH-1): 3.1

Structure (SMILES): CC1=C(CC(=O)O)c2cc(F)ccc2/C1=C\c1ccc([S+](C)[O-])cc1 (stereo not drawn) [Sulindac]
FAAH-1 oleamide hydrolase activity, % of control (FAAH-1 [1]): below 50 % of control | IC50 (FAAH-1 [1]; [5]): 224 µM

Structure (SMILES): NC(=O)c1cccc(-c2cccc(OC(=O)NC3CCCCC3)c2)c1 [URB597]
Mode of FAAH inhibition (FAAH): uncompetitive

Structure (SMILES): Cc1onc(-c2ccccc2)c1-c1ccc(S(N)(=O)=O)cc1 [Valdecoxib]
IC50 (FAAH-1 [1]; [5]): 1000 µM

Further lines, with some results ahead:

FAAH-1 oleamide hydrolase activity, % of control (FAAH-1 [1]): appeared to enhance enzyme activity
Structure (SMILES): CC(=O)Nc1ccc(O)cc1 [Acetaminophen]

FAAH-1 oleamide hydrolase activity, % of control (FAAH-1 [1]): below 50 % of control
Structure (SMILES): CC(C(=O)O)c1ccc2c(c1)[nH]c1ccc(Cl)cc12 (stereo not drawn) [Carprofen]
pIC50 (rat brain FAAH-1): 4.10

FAAH-1 oleamide hydrolase activity, % of control (FAAH-1 [1]): below 50 % of control | IC50 (FAAH-1 [1]; [5]): 1260 µM
Structure (SMILES): O=C(O)Cc1ccccc1Nc1c(Cl)cccc1Cl [Diclofenac]

Mode of inhibition of FAAH activity (FAAH-1 [3]): non-competitive type inhibition | Vmax (nmol/min/mg protein) in presence of inhibitor (FAAH-1 [3]; substrate arachidonamide, + 200 μM inhibitor): 7.2 ± 0.9 nmol/min/mg protein | Vmax (nmol/min/mg protein) in presence of inhibitor (FAAH-1 [3]; substrate oleamide, + 200 μM inhibitor): 3.8 ± 0.4 nmol/min/mg protein
Structure (SMILES): COc1ccc2c(c1)c(CC(=O)O)c(C)n2C(=O)c1ccc(Cl)cc1 [Indomethacin]
pIC50 (rat brain FAAH-1): 4.18

FAAH-1 oleamide hydrolase activity, % of control (FAAH-1 [1]): below 50 % of control | IC50 (FAAH-1 [1]; [5]): 1230 µM
Structure (SMILES): O=C(c1ccccc1)c1ccc2n1CCC2C(=O)O (stereo not drawn) [Ketorolac]

FAAH-1 oleamide hydrolase activity, % of control (FAAH-1 [1]): complete inhibition | IC50 (FAAH-1 [1]; [5]): 269 µM | Mode of inhibition of FAAH activity (FAAH-1 [3]): non-competitive type inhibition | Vmax (nmol/min/mg protein) in presence of inhibitor (FAAH-1 [3]; substrate arachidonamide, + 100 μM inhibitor): 6.7 ± 1.0 nmol/min/mg protein | Vmax (nmol/min/mg protein) in presence of inhibitor (FAAH-1 [3]; substrate oleamide, + 100 μM inhibitor): 2.9 ± 0.1 nmol/min/mg protein
Structure (SMILES): Cc1ccc(Cl)c(Nc2ccccc2C(=O)O)c1Cl [Meclofenamic acid]

Vmax (FAAH-1 [2]): 8.9 ± 1.1 nmol/min/mg protein | Km (FAAH-1 [2]; read-out: Km): 177 ± 15.5 µM | Vmax (nmol/min/mg protein) (FAAH-1 [3]): 4.6 ± 0.5 nmol/min/mg protein
Structure (SMILES): CCCCCCCC/C=C\CCCCCCCC(N)=O [Oleamide]
Vmax ([4]; oleamide hydrolysis, rat liver preparations ref 41): 15 nmol.min^− 1.mg protein^− 1 | Km ([4]; oleamide hydrolysis, rat liver preparations ref 41, read-out: Km): 129 µM | Vmax ([4]; rat liver FAAH-catalysed oleamide hydrolysis ref 44): 5.7 nmol.min^− 1.mg protein^− 1 | Km ([4]; rat liver FAAH-catalysed oleamide hydrolysis ref 44, read-out: affinity (Km)): 104 µM | Km (FAAH-1 in rat brain): 179 µM | Km (rat recombinant FAAH): 37 ± 7 µM

Vmax (FAAH-1 [2]): 2.5 ± 0.6 nmol/min/mg protein | Km (FAAH-1 [2]; read-out: Km): 4.6 ± 0.8 µM
Structure (SMILES): CCCCCCCCCCCCCCCCCC(N)=O [Stearoylamide]

IC50 (FAAH-1 [1]; [5]): 447 µM
Structure (SMILES): CC1=C(CC(=O)O)c2cc(F)ccc2/C1=C\c1ccc(S(C)(=O)=O)cc1 [Sulindac sulphone]

FAAH-1 oleamide hydrolase activity, % of control (FAAH-1 [1]): appeared to enhance enzyme activity
Structure (SMILES): CC(=O)Oc1ccccc1C(=O)O [acetyl salicylic acid]

FAAH-1 activity (%) (basal oleamide hydrolysis, % of control) (FAAH-1 [1]; 15% assay ethanol): 95 ± 1% | FAAH-1 activity (%) (basal oleamide hydrolysis, % of control) (FAAH-1 [1]; 20% assay ethanol): 78 ± 1% | FAAH-1 activity (%) (basal oleamide hydrolysis, % of control) (FAAH-1 [1]; 25% assay ethanol): 76 ± 4%
Structure (SMILES): CCO [ethanol]
